ChEMBL document CHEMBL5696442, “Discovery of type II inhibitors of TGFβ-activated kinase 1 (TAK1) and mitogen-activated protein kinase kinase kinase kinase 2 (MAP4K2)” (J Med Chem, 2015)
Active and inactive are the calls of the source. The calls are words filed in the database; no cut-off is given here.

Legend:
[1] = biological target: Serine/threonine-protein kinase RIO1 (Homo sapiens) (UniProt Q9BRS2); test: Inhibition of RIOK1 (unknown origin) at 10 uM by Ambit Kinomescan binding assay
[2] = biological target: T1, Serine/threonine-protein kinase Chk1 (Homo sapiens) (UniProt O14757); test: Inhibition of CHK1 K2 labeling site in human Huh-7 cells at 10 uM by KiNativ Profiling analysis relative to control; type: cell-based
T1 sequence (whole entry): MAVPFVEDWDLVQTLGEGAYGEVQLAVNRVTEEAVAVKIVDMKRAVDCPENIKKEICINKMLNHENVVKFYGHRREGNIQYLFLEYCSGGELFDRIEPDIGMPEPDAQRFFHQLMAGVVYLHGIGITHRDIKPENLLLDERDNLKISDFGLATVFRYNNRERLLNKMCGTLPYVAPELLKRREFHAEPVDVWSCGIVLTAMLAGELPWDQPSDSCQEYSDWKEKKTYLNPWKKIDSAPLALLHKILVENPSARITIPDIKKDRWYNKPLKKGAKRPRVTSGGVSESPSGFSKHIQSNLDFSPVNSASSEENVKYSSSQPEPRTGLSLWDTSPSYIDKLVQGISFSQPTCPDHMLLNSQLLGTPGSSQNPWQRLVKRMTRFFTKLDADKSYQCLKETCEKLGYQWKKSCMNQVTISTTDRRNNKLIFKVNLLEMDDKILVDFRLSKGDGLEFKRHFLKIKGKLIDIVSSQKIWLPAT

[3] = biological target: T2, PAN2-PAN3 deadenylation complex subunit PAN3 (Homo sapiens) (UniProt Q58A45); test: Inhibition of PAN3 KD labeling site in human Huh-7 cells at 1 uM by KiNativ Profiling analysis relative to control; type: cell-based
T2 sequence (whole entry): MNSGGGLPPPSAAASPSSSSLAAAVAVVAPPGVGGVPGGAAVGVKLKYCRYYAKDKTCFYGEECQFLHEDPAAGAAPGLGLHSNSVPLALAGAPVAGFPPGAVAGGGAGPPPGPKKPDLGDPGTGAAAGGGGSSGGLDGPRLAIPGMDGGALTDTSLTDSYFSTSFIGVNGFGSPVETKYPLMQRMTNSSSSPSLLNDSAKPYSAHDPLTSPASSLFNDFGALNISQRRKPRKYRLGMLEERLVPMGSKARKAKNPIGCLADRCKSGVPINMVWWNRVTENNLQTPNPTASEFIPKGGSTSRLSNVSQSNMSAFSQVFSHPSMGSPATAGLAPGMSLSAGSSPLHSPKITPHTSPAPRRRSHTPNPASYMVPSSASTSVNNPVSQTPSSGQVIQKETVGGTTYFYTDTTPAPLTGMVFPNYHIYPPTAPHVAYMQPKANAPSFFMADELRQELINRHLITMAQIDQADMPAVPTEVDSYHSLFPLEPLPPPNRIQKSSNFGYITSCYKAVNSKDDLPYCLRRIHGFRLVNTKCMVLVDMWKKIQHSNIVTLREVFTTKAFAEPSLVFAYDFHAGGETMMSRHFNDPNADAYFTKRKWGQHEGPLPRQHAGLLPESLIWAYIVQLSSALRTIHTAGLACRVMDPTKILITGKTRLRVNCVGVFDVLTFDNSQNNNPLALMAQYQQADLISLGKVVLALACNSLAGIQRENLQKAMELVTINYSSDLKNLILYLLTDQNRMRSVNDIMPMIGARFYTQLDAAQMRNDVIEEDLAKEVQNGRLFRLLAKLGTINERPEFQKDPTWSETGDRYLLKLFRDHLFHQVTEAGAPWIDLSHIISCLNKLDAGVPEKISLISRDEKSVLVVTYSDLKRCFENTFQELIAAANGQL

[4] = Inhibition of TLK1/2 K2 labeling site in human Huh-7 cells at 1 uM by KiNativ Profiling analysis relative to control; details: condition cancer
[5] = biological target: Cyclin-dependent kinase 4 (Homo sapiens) (UniProt P11802); test: Inhibition of CDK4 Lys2 labeling site in human A-375 cells at 0.05 uM by KiNativ Profiling analysis relative to control; type: cell-based
[6] = test system: Epidermal growth factor receptor (Homo sapiens), P00533 [UNDEFINED MUTATION]; test: Inhibition of EGFR L747/T751del mutant (unknown origin) at 1 uM by Ambit Kinomescan binding assay relative to control
[7] = biological target: T3, Mitogen-activated protein kinase kinase kinase 2 (Homo sapiens) (UniProt Q9Y2U5); test: Inhibition of MAP3K2 (unknown origin) at 1 uM by Ambit Kinomescan binding assay relative to control; values are per cent of control
T3 sequence (whole entry): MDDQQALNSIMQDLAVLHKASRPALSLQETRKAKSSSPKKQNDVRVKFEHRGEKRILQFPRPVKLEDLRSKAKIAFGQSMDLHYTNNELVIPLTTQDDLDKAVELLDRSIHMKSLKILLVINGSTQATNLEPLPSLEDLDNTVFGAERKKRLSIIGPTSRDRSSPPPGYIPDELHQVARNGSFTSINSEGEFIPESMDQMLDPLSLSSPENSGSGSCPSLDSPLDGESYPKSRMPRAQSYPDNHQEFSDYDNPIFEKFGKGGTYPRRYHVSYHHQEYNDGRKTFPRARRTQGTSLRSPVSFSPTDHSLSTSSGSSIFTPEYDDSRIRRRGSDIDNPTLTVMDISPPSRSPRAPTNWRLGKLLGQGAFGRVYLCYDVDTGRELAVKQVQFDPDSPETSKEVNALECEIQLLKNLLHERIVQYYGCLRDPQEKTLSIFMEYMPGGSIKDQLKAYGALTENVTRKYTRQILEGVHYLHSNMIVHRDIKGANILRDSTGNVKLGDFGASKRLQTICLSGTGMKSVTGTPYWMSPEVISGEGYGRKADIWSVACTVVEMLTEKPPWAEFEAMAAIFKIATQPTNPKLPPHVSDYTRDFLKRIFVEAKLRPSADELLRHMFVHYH

[8] = biological target: Putative phosphatidylinositol 4-kinase alpha-like protein P2 (Homo sapiens) (UniProt A4QPH2); test: Inhibition of PI4KAP2 ATP labeling site in human A-375 cells at 0.05 uM by KiNativ Profiling analysis relative to control; type: cell-based
[9] = biological target: T1, Serine/threonine-protein kinase Chk1 (Homo sapiens); test: Inhibition of CHEK1 (unknown origin) at 1 uM by Ambit Kinomescan binding assay relative to control

Sequence of Epidermal growth factor receptor (Homo sapiens), P00533 [UNDEFINED MUTATION] (P00533 whole entry, looked up, stated change not applied): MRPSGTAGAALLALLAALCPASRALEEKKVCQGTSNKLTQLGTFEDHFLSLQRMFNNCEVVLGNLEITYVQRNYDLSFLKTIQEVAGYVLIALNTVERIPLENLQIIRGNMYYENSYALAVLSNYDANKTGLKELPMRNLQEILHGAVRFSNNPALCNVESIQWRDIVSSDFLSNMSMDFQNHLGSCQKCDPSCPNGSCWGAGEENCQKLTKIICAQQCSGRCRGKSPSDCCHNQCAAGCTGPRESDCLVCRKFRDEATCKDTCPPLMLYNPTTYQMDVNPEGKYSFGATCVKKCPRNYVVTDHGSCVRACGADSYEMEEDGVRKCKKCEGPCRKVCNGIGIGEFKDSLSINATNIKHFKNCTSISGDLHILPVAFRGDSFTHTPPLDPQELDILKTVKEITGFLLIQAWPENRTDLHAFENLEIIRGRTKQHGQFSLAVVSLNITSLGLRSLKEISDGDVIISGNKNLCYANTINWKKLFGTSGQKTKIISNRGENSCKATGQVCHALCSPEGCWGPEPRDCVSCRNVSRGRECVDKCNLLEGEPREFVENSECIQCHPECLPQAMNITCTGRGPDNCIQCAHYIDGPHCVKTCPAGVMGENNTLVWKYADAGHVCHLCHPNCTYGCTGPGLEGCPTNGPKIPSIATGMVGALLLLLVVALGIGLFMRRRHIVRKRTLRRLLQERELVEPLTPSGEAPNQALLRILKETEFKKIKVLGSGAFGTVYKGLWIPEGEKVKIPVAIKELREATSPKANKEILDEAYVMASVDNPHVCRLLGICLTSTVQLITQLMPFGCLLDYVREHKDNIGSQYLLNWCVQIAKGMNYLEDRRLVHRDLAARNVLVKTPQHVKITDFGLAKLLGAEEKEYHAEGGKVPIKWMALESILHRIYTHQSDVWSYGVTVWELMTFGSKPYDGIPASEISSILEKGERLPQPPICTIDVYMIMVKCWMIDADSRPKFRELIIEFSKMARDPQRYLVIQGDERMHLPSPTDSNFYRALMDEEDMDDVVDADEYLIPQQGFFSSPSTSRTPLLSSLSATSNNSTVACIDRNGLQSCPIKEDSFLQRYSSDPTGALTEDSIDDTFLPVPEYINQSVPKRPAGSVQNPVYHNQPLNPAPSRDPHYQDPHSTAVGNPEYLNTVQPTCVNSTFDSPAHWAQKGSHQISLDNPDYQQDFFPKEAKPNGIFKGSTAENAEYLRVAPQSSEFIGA
Sequence of Serine/threonine-protein kinase RIO1 (Homo sapiens) (Q9BRS2 whole entry): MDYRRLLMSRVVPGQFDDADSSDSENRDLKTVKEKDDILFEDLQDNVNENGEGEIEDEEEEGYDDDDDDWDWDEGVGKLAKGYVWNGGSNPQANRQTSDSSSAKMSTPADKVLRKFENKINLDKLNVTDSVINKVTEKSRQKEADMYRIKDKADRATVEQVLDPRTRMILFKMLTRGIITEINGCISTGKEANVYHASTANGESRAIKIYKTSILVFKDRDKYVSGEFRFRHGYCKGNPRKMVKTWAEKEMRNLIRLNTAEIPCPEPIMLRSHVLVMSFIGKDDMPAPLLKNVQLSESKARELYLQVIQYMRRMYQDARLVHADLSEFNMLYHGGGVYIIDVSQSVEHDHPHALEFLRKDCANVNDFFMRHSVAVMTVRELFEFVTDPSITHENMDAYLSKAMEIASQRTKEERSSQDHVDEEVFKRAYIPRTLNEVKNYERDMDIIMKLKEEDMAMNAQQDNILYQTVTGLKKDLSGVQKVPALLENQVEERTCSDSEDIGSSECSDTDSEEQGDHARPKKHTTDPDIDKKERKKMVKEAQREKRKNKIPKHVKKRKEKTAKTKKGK
Sequence of Putative phosphatidylinositol 4-kinase alpha-like protein P2 (Homo sapiens) (A4QPH2 whole entry): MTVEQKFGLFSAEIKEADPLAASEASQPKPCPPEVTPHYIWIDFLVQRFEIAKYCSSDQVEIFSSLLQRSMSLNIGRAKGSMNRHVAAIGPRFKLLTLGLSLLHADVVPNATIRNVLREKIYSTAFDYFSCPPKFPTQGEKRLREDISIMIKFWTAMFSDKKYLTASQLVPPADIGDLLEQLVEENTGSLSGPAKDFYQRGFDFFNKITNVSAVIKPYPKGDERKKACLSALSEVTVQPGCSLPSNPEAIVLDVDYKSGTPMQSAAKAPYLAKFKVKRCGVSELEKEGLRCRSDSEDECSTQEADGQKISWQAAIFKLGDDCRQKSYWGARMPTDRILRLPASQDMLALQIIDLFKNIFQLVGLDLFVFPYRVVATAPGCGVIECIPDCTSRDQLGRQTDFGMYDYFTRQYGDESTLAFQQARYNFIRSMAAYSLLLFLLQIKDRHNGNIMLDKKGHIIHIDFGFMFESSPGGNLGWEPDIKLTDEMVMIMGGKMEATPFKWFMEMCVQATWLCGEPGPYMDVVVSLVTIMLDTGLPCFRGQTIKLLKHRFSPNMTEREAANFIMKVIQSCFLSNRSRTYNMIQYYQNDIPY
Sequence of Cyclin-dependent kinase 4 (Homo sapiens) (P11802 whole entry): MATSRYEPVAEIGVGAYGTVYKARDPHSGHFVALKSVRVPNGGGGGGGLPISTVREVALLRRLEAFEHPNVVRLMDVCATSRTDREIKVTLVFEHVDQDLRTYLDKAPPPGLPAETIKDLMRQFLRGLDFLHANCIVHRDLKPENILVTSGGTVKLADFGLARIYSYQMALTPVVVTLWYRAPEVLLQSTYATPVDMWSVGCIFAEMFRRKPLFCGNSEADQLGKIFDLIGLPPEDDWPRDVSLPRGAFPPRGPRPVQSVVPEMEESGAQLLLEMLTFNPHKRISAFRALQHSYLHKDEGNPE

| SMILES | inhibition [1] | inhibition [2] [%] | inhibition [3] [%] | inhibition at 1 µM [4] [%] | inhibition [5] [%] | inhibition [6] [%] | residual activity [7] [%] | inhibition [8] [%] | inhibition [9] [%] |
| --- | --- | --- | --- | --- | --- | --- | --- | --- | --- |
| CCN1CCN(Cc2ccc(NC(=O)c3ccc(C)c(Oc4ccnc5[nH]ccc45)c3)cc2C(F)(F)F)CC1 | inactive | 3.5 | 13.4 | -1.1 | – | – | – | – | – |
| CCN1CCN(Cc2ccc(NC(=O)c3ccc(C)c(/C=C/c4cnc5[nH]ccc5c4OC)c3)cc2C(F)(F)F)CC1 | – | – | – | – | -10 | 1.6 | 23 | 0.8 | 100 |
